Source: patent US7476673B2, “Disubstituted chalcone oximes as selective agonists of RARγ retinoid receptors” (Allergan, Inc., priority 2003, dated 2009)

Tests used:
[1] = molecular target: T1, RARβ (Homo sapiens, UniProt P10826); experiment: ligand binding assay, RARβ; settings: results expressed in Ki numbers, read-out: RAR Binding β
T1 sequence (P10826 1-455): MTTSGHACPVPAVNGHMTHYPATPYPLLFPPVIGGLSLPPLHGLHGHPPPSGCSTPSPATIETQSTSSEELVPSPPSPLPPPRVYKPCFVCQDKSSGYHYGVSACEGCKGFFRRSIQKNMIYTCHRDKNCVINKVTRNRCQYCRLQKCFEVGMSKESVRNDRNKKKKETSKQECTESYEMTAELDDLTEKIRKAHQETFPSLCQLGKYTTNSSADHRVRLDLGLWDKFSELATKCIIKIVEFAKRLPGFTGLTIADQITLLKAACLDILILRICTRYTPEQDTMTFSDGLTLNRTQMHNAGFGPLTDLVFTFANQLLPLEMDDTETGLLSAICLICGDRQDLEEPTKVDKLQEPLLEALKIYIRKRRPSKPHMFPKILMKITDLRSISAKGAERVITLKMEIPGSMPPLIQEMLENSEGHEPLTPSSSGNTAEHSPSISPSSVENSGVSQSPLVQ
Description: (§1) A holoreceptor transactivation assay and a ligand binding assay which measure the antagonist/agonist like activity of the compounds of the invention, or their ability to bind to the several retinoid receptor subtypes, respectively, are described in published PCT Application No. WO WO93/11755 (particularly on pages 30-33 and 37-41) published on Jun. 24, 1993, the specification of which is also incorporated herein by reference. A detailed experimental procedure for holoreceptor transactivations has been described by Heyman et al. Cell 68, 397-406, (1992); Allegretto et al. J. Biol. Chem. 268, 26625-26633, and Mangelsdorf et al. The Retinoids: Biology, Chemistry and Medicine, pp 319-349, Raven Press Ltd., New York, which are expressly incorporated herein by reference. The results obtained in this assay are expressed in EC50 numbers, as they are also in the chimeric receptor transactivation assay. The results of the ligand binding assay are expressed in Ki numbers. (See Cheng et al. Biochemical Pharmacology Vol. 22 pp 3099-3108, expressly incorporated herein by reference.)
(§2) Table 1 discloses the activity of certain exemplary compounds of the invention in the above-described chimeric RAR receptor transactivation and binding assays.

[2] = molecular target: T2, RARα (Homo sapiens, UniProt P10276); experiment: chimeric receptor transactivation assay, RARα; format: cell-based; settings: for EC50: chimeric receptor transactivation, read-out: RAR EC50 α; for % Efficiency α: percentage of maximum compared to standard TTNPB
T2 sequence (P10276 183-417 limits assumed): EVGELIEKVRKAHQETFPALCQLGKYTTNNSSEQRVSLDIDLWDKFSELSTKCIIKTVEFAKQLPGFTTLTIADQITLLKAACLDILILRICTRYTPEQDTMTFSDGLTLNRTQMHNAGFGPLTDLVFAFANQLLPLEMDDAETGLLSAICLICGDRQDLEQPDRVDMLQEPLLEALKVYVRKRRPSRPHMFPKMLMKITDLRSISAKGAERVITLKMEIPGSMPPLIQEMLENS
Method: (§3) The compounds of the invention were tested in certain assays for activity as agonists of RAR and RXR retinoid receptors. Specifically, one such assay is a chimeric receptor transactivation assay which tests for agonist-like activity in the RARα, RARβ and RARγ receptor subtypes, and which is based on work published by Feigner P. L. and Holm M. (1989) Focus, 112 is described in detail in U.S. Pat. No. 5,455,265. The specification of U.S. Pat. No. 5,455,265 is hereby expressly incorporated by reference.
as §1
(§4) Efficacy in a transactivation assay is expressed as a percentage of the maximum potency attained by the compound compared to a standard which, in this case, is the compound 4-[(1E)-2-(5,6,7,8-tetrahydro-5,5,8,8-tetramethyl-2-naphthalenyl)-1-propenyl]-benzoic acid. (TTNPB) This standard compound is described in PCT Publication WO 2002077169 A2.
as §2

[3] = molecular target: T3, RARγ (Homo sapiens, UniProt P13631); experiment: ligand binding assay, RARγ; settings: results expressed in Ki numbers, read-out: RAR Binding γ
T3 sequence (P13631 1-454): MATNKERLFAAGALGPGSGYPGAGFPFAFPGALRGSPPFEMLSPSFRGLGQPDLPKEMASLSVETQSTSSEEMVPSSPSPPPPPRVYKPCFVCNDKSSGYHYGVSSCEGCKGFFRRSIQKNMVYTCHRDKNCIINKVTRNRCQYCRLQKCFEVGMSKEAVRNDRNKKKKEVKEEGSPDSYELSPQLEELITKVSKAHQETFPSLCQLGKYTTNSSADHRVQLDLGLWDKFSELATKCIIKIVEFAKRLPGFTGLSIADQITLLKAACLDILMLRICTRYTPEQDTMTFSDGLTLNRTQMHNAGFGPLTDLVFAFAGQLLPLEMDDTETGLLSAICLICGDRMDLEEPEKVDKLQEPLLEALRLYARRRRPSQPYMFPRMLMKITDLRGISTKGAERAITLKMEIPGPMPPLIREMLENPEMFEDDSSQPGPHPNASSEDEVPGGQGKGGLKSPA
Description: as §1, §2

[4] = molecular target: T4, RARβ (Homo sapiens, UniProt P10826); experiment: chimeric receptor transactivation assay, RARβ; format: cell-based; settings: for EC50: chimeric receptor transactivation, read-out: RAR EC50 β; for % Efficiency β: percentage of maximum compared to standard TTNPB
T4 sequence (P10826 183-455 limits assumed): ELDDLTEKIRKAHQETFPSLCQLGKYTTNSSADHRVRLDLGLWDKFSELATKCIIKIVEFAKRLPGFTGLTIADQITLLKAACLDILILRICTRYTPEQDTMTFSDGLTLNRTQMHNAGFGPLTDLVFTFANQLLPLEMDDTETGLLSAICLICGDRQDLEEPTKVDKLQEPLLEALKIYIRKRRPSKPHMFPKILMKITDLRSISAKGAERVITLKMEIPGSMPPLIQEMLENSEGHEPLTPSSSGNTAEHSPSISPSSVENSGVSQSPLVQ
Method: as §3, §1, §4, §2

[5] = molecular target: T5, RARα (Homo sapiens, UniProt P10276); experiment: ligand binding assay, RARα; settings: results expressed in Ki numbers, read-out: RAR Binding α
T5 sequence (P10276 1-462): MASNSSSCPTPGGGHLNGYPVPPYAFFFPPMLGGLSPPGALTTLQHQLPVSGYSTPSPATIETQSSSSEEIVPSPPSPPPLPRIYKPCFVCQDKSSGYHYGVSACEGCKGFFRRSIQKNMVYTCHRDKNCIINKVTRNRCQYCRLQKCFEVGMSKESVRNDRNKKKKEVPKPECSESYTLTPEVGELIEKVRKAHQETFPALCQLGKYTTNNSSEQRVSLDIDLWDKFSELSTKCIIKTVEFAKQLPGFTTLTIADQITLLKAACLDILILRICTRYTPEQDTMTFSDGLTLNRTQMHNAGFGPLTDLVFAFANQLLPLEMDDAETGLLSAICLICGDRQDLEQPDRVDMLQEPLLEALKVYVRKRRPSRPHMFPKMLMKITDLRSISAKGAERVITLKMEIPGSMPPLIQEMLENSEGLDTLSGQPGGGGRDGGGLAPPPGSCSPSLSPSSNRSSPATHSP
Description: as §1, §2

[6] = molecular target: T6, RARγ (Homo sapiens, UniProt P13631); experiment: chimeric receptor transactivation assay, RARγ; format: cell-based; settings: for EC50: chimeric receptor transactivation, read-out: RAR EC50 γ; for % Efficiency γ: percentage of maximum compared to standard TTNPB
T6 construct: % Efficiency γ; other: percentage of maximum compared to standard TTNPB
T6 sequence (P13631 185-454 limits assumed): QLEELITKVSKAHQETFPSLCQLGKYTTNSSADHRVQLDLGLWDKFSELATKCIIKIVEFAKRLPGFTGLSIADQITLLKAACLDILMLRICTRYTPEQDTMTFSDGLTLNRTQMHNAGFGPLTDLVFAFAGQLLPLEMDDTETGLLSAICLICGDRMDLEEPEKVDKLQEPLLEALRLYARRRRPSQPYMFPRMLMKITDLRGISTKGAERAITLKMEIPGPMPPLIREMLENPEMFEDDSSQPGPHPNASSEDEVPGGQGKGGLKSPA
Method: as §3, §1, §4, §2

Compound	Ki [1] [µM]	EC50 [2] [nM]	% Efficiency α [2] [%]	Ki [3] [nM]	EC50 [4] [nM]	% Efficiency β [4] [%]	Ki [5] [µM]	EC50 [6] [nM]	% Efficiency γ [6] [%]
CC1(C)CCCc2ccc(C(/C=C/c3ccc(C(=O)O)cc3F)=N\O)cc21	7	345	120	132	4060	95	2.1	14	123
CC1(C)CCSc2ccc(C(/C=C/c3ccc(C(=O)O)cc3F)=N/O)cc21	8	> 1000	–	15	173	55	10	10	90
CC1(C)CCSc2ccc(C(/C=C/c3ccc(C(=O)O)cc3F)=N\O)cc21	10	> 1000	–	19	503	45	10	21	120
CCCCCCCN1C(=O)CC(C)(C)c2cc(C(C=Cc3ccc(C(=O)O)cc3)=NO)ccc21	29	> 1000	–	51	–	–	11	10	11
CC1=CCC(C)(C)c2cc(C(/C=C/c3ccc(C(=O)O)cc3F)=N/O)ccc21	11	> 1000	–	256	168	86	7	2	92
CC1=CCC(C)(C)c2cc(C(/C=C/c3ccc(C(=O)O)cc3)=N\O)ccc21	3	515	50	36	94	104	4	4	95
CC1(C)CC(C)(C)c2cc(C(C=Cc3ccc(C(=O)O)cc3F)=NO)ccc21	25	> 1000	–	25	114	79	14	1	72
CC1(C)CC(C)(C)c2cc(C(/C=C/c3ccc(C(=O)O)cc3F)=N\O)ccc21	27	> 1000	–	264	249	82	13	9	79
COc1cc2c(cc1C(/C=C/c1ccc(C(=O)O)cc1)=N/O)C(C)(C)CCC2(C)C	2.5	80000	29	648	1270	65	2	19	98
COc1cc2c(cc1C(/C=C/c1ccc(C(=O)O)cc1)=N\O)C(C)(C)CCC2(C)C	10	> 1000	–	1500	5920	44	10	84	107
CC1(C)CCC(C)(C)c2nc(C(C=Cc3ccc(C(=O)O)cc3)=NO)cnc21 [drawing 35]	–	128	54	461	77	110	25	143	151

The remaining lines, values ahead:

Ki [1] [µM]	EC50 [2] [nM]	% Efficiency α [2] [%]	Ki [3] [nM]	EC50 [4] [nM]	% Efficiency β [4] [%]	Ki [5] [µM]	EC50 [6] [nM]	% Efficiency γ [6] [%]	Compound
1.2	118	39	46	62	133	5.2	44	97	CC1(C)CCCc2ccc(C(/C=C/c3ccc(C(=O)O)cc3F)=N/O)cc21
9	> 1000	–	32	473	23	17	92	35	CCCCCCCN1C(=O)CC(C)(C)c2cc(C(/C=C/c3ccc(C(=O)O)cc3)=N\O)ccc21
1.3	7000	38	6	54	95	3	0.3	91	CC1=CCC(C)(C)c2cc(C(/C=C/c3ccc(C(=O)O)cc3)=N/O)ccc21
11	> 1000	–	28	445	92	18	11	90	CC1=CCC(C)(C)c2cc(C(/C=C/c3ccc(C(=O)O)cc3F)=N\O)ccc21
–	4000	41	240	105	88	27	10	123	CC1(C)CCC(C)(C)c2nc(C(C=Cc3ccc(C(=O)O)cc3)=NO)cnc21 [drawing 34]
